Assay results published in patent US20240217983A1, “GPR119 AGONISTS” (Kallyope, Inc., priority 2021, published 2024).
Where a name gives a salt, the structure may show the parent alone.

Target: T1, human GPR119 (hGPR119) (Homo sapiens, UniProt Q8TDV5)
T1 construct: expressed in transfected cells
T1 sequence (Q8TDV5 1-335): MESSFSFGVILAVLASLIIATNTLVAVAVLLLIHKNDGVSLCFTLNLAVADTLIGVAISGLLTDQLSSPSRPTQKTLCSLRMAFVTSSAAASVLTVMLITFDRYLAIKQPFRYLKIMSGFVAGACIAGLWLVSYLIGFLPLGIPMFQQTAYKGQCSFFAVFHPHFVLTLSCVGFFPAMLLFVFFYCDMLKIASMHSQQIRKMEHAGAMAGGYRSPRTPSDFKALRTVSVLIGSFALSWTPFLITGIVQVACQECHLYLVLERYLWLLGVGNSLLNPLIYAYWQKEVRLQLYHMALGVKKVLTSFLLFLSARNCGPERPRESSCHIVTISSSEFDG
Assay: cAMP accumulation assay (Cisbio cAMP Gs dynamic HTRF kit) in CHO-K1 cells stably expressing human GPR119
Type: cell-based
Settings: 4-parameter fit; for Emax: 1 h, % activity normalized to Max and Min controls; for EC50: 60 minutes at 37° C.
In short: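 CHO-K1 cells stably expressing hGPR119, used as assay-ready frozen stocks at ~10,000 cells/well, exposed to compound dose-response in stimulation buffer with Tween 80 for 60 min at 37° C. cAMP read by HTRF (665/620 nm ratio), normalised to Max/Min controls; EC50 and Max activity from 4-parameter fit.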

SMILES	Emax	EC50
O=C(Cc1ccc(OCCCC2CCN(c3ncc(Cl)cn3)CC2)cc1F)N1CC2(C1)OCC2NC[C@H](O)[C@H](O)[C@H](O)CO (stereo partly drawn) [Example 82, 2-(4-(3-(1-(5-chloropyrimidin-2-yl)piperidin-4-yl)propoxy)-2-fluorophenyl)-1-(3-(((2S,3S,4R)-2,3,4,5-tetrahydroxypentyl)amino)-1-oxa-6-azaspiro[3.3]heptan-6-yl)ethan-1-one]	100 to 130%	≤ 100 nM
O=C(Cc1ccc(OCCCC2CCN(c3ncc(Cl)cn3)CC2)cc1F)N1CCC2(CC2NC[C@H](O)[C@H](O)[C@H](O)CO)C1 (stereo partly drawn) [Example 83, 2-(4-(3-(1-(5-chloropyrimidin-2-yl)piperidin-4-yl)propoxy)-2-fluorophenyl)-1-(1-(((2S,3S,4R)-2,3,4,5-tetrahydroxypentyl)amino)-5-azaspiro[2.4]heptan-5-yl)ethan-1-one]	100 to 130%	≤ 100 nM
O=C(Cc1c(F)cc(OCCCC2CCN(c3ncc(Cl)cn3)CC2)cc1F)N1CCN(C[C@H](O)[C@@H](O)[C@H](O)[C@H](O)CO)CC1 [Example 85, 2-(4-(3-(1-(5-chloropyrimidin-2-yl)piperidin-4-yl)propoxy)-2,6-difluorophenyl)-1-(4-((2S,3R,4R,5R)-2,3,4,5,6-pentahydroxyhexyl)piperazin-1-yl)ethan-1-one formate]	≥ 130%	≤ 100 nM
O=C(Cc1ccc(OCCCCC2CCN(c3ncc(Cl)cn3)CC2)cc1F)N1CCN(C[C@H](O)[C@@H](O)[C@H](O)[C@H](O)CO)CC1 [Example 86, 2-(4-(4-(1-(5-chloropyrimidin-2-yl)piperidin-4-yl)butoxy)-2-fluorophenyl)-1-(4-((2S,3R,4R,5R)-2,3,4,5,6-pentahydroxyhexyl)piperazin-1-yl)ethan-1-one]	100 to 130%	≤ 100 nM
O=C(Cc1c(F)cc(OCCCCC2CCN(c3ncc(Cl)cn3)CC2)cc1F)N1CCN(C[C@H](O)[C@@H](O)[C@H](O)[C@H](O)CO)CC1 [Example 87, 2-(4-(4-(1-(5-chloropyrimidin-2-yl)piperidin-4-yl)butoxy)-2,6-difluorophenyl)-1-(4-((2S,3R,4R,5R)-2,3,4,5,6-pentahydroxyhexyl)piperazin-1-yl)ethan-1-one]	≥ 130%	≤ 100 nM
O=C(Cc1ccc(OCCCC2CCN(c3ncc(Cl)cn3)CC2)cn1)N1CCN(C[C@H](O)[C@@H](O)[C@H](O)[C@H](O)CO)CC1 [Example 88, 2-(5-(3-(1-(5-chloropyrimidin-2-yl)piperidin-4-yl)propoxy)pyridin-2-yl)-1-(4-((2S,3R,4R,5R)-2,3,4,5,6-pentahydroxyhexyl)piperazin-1-yl)ethan-1-one]	100 to 130%	> 10000 nM
O=C(Cc1ncc(OCCCC2CCN(c3ncc(Cl)cn3)CC2)cc1F)N1CCN(C[C@H](O)[C@@H](O)[C@H](O)[C@H](O)CO)CC1 [Example 89, 2-(5-(3-(1-(5-chloropyrimidin-2-yl)piperidin-4-yl)propoxy)-3-fluoropyridin-2-yl)-1-(4-((2S,3R,4R,5R)-2,3,4,5,6-pentahydroxyhexyl)piperazin-1-yl)ethan-1-one]	100 to 130%	100 to 1000 nM
O=C(Cc1ccc(OCCCC2CCN(c3ncc(Cl)cn3)CC2)nc1)N1CCN(C[C@H](O)[C@@H](O)[C@H](O)[C@H](O)CO)CC1 [Example 90, 2-(6-(3-(1-(5-chloropyrimidin-2-yl)piperidin-4-yl)propoxy)pyridin-3-yl)-1-(4-((2S,3R,4R,5R)-2,3,4,5,6-pentahydroxyhexyl)piperazin-1-yl)ethan-1-one]	100 to 130%	100 to 1000 nM
O=C(Cc1ccc(OCCCC2CCN(c3ncc(Cl)cn3)CC2)c(F)c1)N1CCN(C[C@H](O)[C@@H](O)[C@H](O)[C@H](O)CO)CC1 [Example 91, 2-(4-(3-(1-(5-chloropyrimidin-2-yl)piperidin-4-yl)propoxy)-3-fluorophenyl)-1-(4-((2S,3R,4R,5R)-2,3,4,5,6-pentahydroxyhexyl)piperazin-1-yl)ethan-1-one]	100 to 130%	100 to 1000 nM
CCc1cnc(N2CCC(CCCOc3ccc(CC(=O)N4CCN(C[C@H](O)[C@@H](O)[C@H](O)[C@H](O)CO)CC4)c(F)c3)CC2)nc1 [Example 92, 2-(4-(3-(1-(5-ethylpyrimidin-2-yl)piperidin-4-yl)propoxy)-2-fluorophenyl)-1-(4-((2S,3R,4R,5R)-2,3,4,5,6-pentahydroxyhexyl)piperazin-1-yl)ethan-1-one]	100 to 130%	≤ 100 nM
CCc1cnc(N2CCC(CCCOc3cc(F)c(CC(=O)N4CCN(C[C@H](O)[C@@H](O)[C@H](O)[C@H](O)CO)CC4)c(F)c3)CC2)nc1 [Example 93, 2-(4-(3-(1-(5-ethylpyrimidin-2-yl)piperidin-4-yl)propoxy)-2,6-difluorophenyl)-1-(4-((2S,3R,4R,5R)-2,3,4,5,6-pentahydroxyhexyl)piperazin-1-yl)ethan-1-one]	100 to 130%	≤ 100 nM
CCCc1cnc(N2CCC(CCCOc3ccc(CC(=O)N4CCN(C[C@H](O)[C@@H](O)[C@H](O)[C@H](O)CO)CC4)c(F)c3)CC2)nc1 [Example 94, 2-(2-fluoro-4-(3-(1-(5-propylpyrimidin-2-yl)piperidin-4-yl)propoxy)phenyl)-1-(4-((2S,3R,4R,5R)-2,3,4,5,6-pentahydroxyhexyl)piperazin-1-yl)ethan-1-one]	100 to 130%	≤ 100 nM
CCCc1cnc(N2CCC(CCCOc3cc(F)c(CC(=O)N4CCN(C[C@H](O)[C@@H](O)[C@H](O)[C@H](O)CO)CC4)c(F)c3)CC2)nc1 [Example 95, 2-(2,6-difluoro-4-(3-(1-(5-propylpyrimidin-2-yl)piperidin-4-yl)propoxy)phenyl)-1-(4-((2S,3R,4R,5R)-2,3,4,5,6-pentahydroxyhexyl)piperazin-1-yl)ethan-1-one]	100 to 130%	≤ 100 nM
CCOc1cnc(N2CCC(CCCOc3ccc(CC(=O)N4CCN(C[C@H](O)[C@@H](O)[C@H](O)[C@H](O)CO)CC4)c(F)c3)CC2)nc1 [Example 96, 2-(4-(3-(1-(5-ethoxypyrimidin-2-yl)piperidin-4-yl)propoxy)-2-fluorophenyl)-1-(4-((2S,3R,4R,5R)-2,3,4,5,6-pentahydroxyhexyl)piperazin-1-yl)ethan-1-one]	100 to 130%	100 to 1000 nM
CCOc1cnc(N2CCC(CCCOc3cc(F)c(CC(=O)N4CCN(C[C@H](O)[C@@H](O)[C@H](O)[C@H](O)CO)CC4)c(F)c3)CC2)nc1 [Example 97, 2-(4-(3-(1-(5-ethoxypyrimidin-2-yl)piperidin-4-yl)propoxy)-2,6-difluorophenyl)-1-(4-((2S,3R,4R,5R)-2,3,4,5,6-pentahydroxyhexyl)piperazin-1-yl)ethan-1-one]	100 to 130%	≤ 100 nM
COCc1cnc(N2CCC(CCCOc3ccc(CC(=O)N4CCN(C[C@H](O)[C@@H](O)[C@H](O)[C@H](O)CO)CC4)c(F)c3)CC2)nc1 [Example 98, 2-(2-fluoro-4-(3-(1-(5-(methoxymethyl)pyrimidin-2-yl)piperidin-4-yl)propoxy)phenyl)-1-(4-((2S,3R,4R,5R)-2,3,4,5,6-pentahydroxyhexyl)piperazin-1-yl)ethan-1-one]	100 to 130%	100 to 1000 nM
